Measured values from patent US10117845B2, “Retinal derivatives and methods for the use thereof for the treatment of visual disorders” (University of Washington, priority 2004, dated 2018).

Legend:
Lrat−/− mice [1] = assay: 9-cis-RAL oxime levels in eyes of Lrat−/− mice after single or multiple oral doses (Example 3); assay type: in vivo, mouse
Method: Levels of 9-cis-RAL oximes (measured as syn- and anti-9-cis-retinyl aldehyde) in the eyes of Lrat−/− mice after a single dose or multiple doses of 9-cis-retinyl-acetate (9-cis-R-Ac). Doses of 9-cis-R-Ac were administered to Lrat−/− mice by oral gavage in vegetable oil (100% canola oil) in a volume of 500 ill (2.5 mg/ml). The mice weighed about 30-50 g. After 3 days, 9-cis-RAL oximes levels were determined by HPLC. Briefly, all experimental procedures related to extraction, derivatization, and separation of retinoids from dissected mouse eyes were carried out as described previously. See Van Hooser et al., J. Biol. Chem. 277:19173-182 (2002); Van Hooser et al., Proc. Natl. Acad. Sci. USA 97:8623-28 (2000); Maeda et al., J. Neurochem. 85:944-56 (2003). All reactions involving retinoids were carried out under dim red light.
Referring to FIG. 5a, the level of 9-cis-RAL in Lrat−/− in mouse eyes after a varying dose of 9-cis-R-Ac is shown. Peaks were identified by retention time and UV spectra and compared to standards. The spike around 19 min resulted from changes in the solvent composition. Retinoid analysis was performed on an HP1100 HPLC equipped with a diode array detector and HP Chemstation (A.07.01) software, allowing identification of retinoid isomers according to their specific retention time and absorption maxima. […]

Lrat−/− mice [2] = assay: Bioavailability comparison of oral 9-cis-retinaldehyde and 9-cis-retinyl acetate, by chromophore levels in LRAT−/− mice (Example 5); assay type: in vivo, mouse; conditions: low (10 μmoles) and high (15 μmoles) doses, effect more pronounced at low dose, FIG. 7
Method: A comparison of the bioavailability of orally delivered 9-cis-retinaldehyde and 9-cis-retinyl acetate in an LRAT−/− model. 9-cis-retinaldehyde and 9-cis-retinyl acetate were administered at low (10 μmoles) and high (15 μmoles) doses to LRAT−/− mice. Chromophore levels (as 9-cis-retinal oximes) were determined as described previously. See Van Hooser et at, J. Biol. Chem. 277:19173-182 (2002); Van Hooser et al., Proc. Natl. Acad. Sci. USA 97:8623-28 (2000); Maeda et al., J. Neurochem. 85:944-56 (2003). All reactions involving retinoids were carried out under dim red light.

[3] = tested on: LRAT−/− mice (LCA mouse model); assay: Retinoids in eyes of gavaged LRAT−/− mice, analyzed by HPLC (Example 1); assay type: in vivo
Method: […]. HPLC chromatogram showing retinoid elution in treated and control mice eye and liver tissue. FIG. 1A. Eyes from dark adapted LRAT−/− mouse. FIG. 1B. Eyes from dark-adapted LRAT−/− mouse gavaged with 5 mg all-trans-retinyl palmitate 2 days prior. FIG. 1C. Eyes from dark-adapted LRAT−/− mouse gavaged with 5 mg all-trans-retinyl acetate 2 days prior. FIG. 1D. Eyes from dark-adapted LRAT−/− mouse gavaged with 6.5 mg 9-cis-retinyl acetate 3 days prior. FIG. 1E. Liver tissue from dark adapted LRAT−/− mouse. FIG. 1F. Liver tissue from dark-adapted LRAT−/− mouse gavaged with 5 mg all-trans-retinyl palmitate 2 days prior. FIG. 1G. Liver tissue from dark-adapted LRAT−/− mouse gavaged with 5 mg all-trans-retinyl acetate 2 days prior. FIG. 1H. Liver tissue from dark-adapted LRAT−/− mouse gavaged with 6.5 mg 9-cis-retinyl acetate 3 days prior.
9-cis-retinyl ester restores visual pigment in an LCA mouse model. LRAT−/− mice were gavaged with all-trans-retinyl palmitate, all-trans-retinyl acetate or 9-cis-retinyl acetate as indicated in the legend to FIG. 1A-1H. Following treatment, retinoids were extracted from the eye and liver, and analyzed by HPLC. […] 9-cis-retinyl ester restores visual pigment in approximately 5 hr (FIG. 2), while excess of retinoid is removed and metabolized (as illustrated for 9-cis-retinol).

Lrat−/− mice [4] = assay: Chromophore levels in eyes of Lrat−/− mice after all-trans-retinoid isoforms or 9-cis-retinyl succinate (Example 4); assay type: in vivo, mouse; conditions: 5 mg by oral gavage in canola oil (40 mg/ml), measured after 3 days; FIG. 6
Method: Levels of chromophore (opsin/retinal complexes) were measured in the eyes of mice after dosing with all-trans-retinoid isoforms or 9-cis-retinyl succinate. All-trans-retinyl-palmitate, all-trans-retinyl acetate, all-trans-retinal (vitamin A aldehyde), all-trans-retinol (vitamin A), all-trans-retinyl succinate and 9-cis-retinyl succinate were administered to Lrat−/− mice by oral gavage. Five milligrams of the retinoid isoforms or 9-cis-retinyl succinate were administered in 100% canola oil at a concentration of 40 mg/ml. After 3 days, chromophore levels (as all-trans-retinal oximes or 9-cis-retinal oximes) were determined as described previously. See Van Hooser et al., J. Biol. Chem. 277:19173-182 (2002); Van Hooser et al, Proc. Natl. Acad. Sci. USA 97:8623-28 (2000); Maeda et al., J. Neurochem. 85:944-56 (2003). All reactions involving retinoids were carried out under dim red light.

| SMILES | maximal level of isorhodopsin (as 9-cis-retinal oximes) (Lrat−/− mice [1]; Lrat−/− mouse eyes after 10 gavages, FIG. 5b) | dose at which levels of 9-cis-RAL per eye leveled off (Lrat−/− mice [1]; single varying dose by oral gavage in canola oil, measured after 3 days, FIG. 5a) [µmol] | restoration of chromophore levels (as 9-cis-retinal oximes), compared with 9-cis-retinaldehyde (Lrat−/− mice [2]) | presence of syn-9-cis-retinal oxime in eyes (formation of the chromophore) ([3]; dark-adapted LRAT−/− mouse gavaged with 6.5 mg 3 days prior, FIG. 1D) | time in which visual pigment is restored ([3]; eye 9-cis-retinal oximes time course, FIG. 2) | restoration of chromophore levels (as all-trans-retinal oximes or 9-cis-retinal oximes) (Lrat−/− mice [4]) |
| --- | --- | --- | --- | --- | --- | --- |
| CC(=O)OC/C=C(C)/C=C/C=C(C)\C=C\C1=C(C)CCCC1(C)C [9-cis-retinyl acetate] | comparable to the level of rhodopsin in wildtype (WT) mice | 4 to 6 | more efficiently restores chromophore levels than 9-cis-retinaldehyde | restored the presence of syn-9-cis-retinal oxime | approximately 5 hr | – |
| CC1=C(/C=C/C(C)=C\C=C\C(C)=C\COC(=O)CCC(=O)O)C(C)(C)CCC1 [9-cis-retinyl succinate] | – | – | – | – | – | restored chromophore levels |
